Patent US20260092057A1, “BCL-XL/BCL-2 DEGRADERS AND USES THEREOF” (Kymera Therapeutics, Inc., priority 2022, published 2026)
Like-named read-outs stand apart in the source and are kept apart here.

Key:
Assay type in all cases: cell-based
[1] = target: T1, BCL-XL (Homo sapiens, UniProt Q07817); assay: BCL-XL degradation assay in MOLT-4 cells (ELISA, 6 h); details: for DC50: read-out: Bcl-xL ELISA in MOLT-4 degradation 6 h: External Abs-DC50
T1 construct: BCL-XL degradation results in MOLT-4 cells for compounds of the invention; endogenous in cells; host or cells: MOLT-4
T1 sequence (Q07817 whole entry): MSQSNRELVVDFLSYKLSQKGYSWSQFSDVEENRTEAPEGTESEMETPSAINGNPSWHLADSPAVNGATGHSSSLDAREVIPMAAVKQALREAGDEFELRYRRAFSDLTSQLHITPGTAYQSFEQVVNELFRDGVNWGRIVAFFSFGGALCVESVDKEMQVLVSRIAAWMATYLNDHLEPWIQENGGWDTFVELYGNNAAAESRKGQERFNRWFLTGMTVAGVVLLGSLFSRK

[2] = test system: MOLT-4 cells; assay: CTG (CellTiter-Glo) cell viability assay, MOLT-4; details: MOLT-4, 3 day, read-out: CTG Cell Viability Assay - MOLT-4 3 day: Average external-IC50
How it was run: (§1)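 Cells seeded at 10,000 per well, then exposed to a 9-point 1:3 dilution series from 10 µM top concentration (0.2% DMSO) for 3 days at 37 °C, 5% CO2. Viability measured by CellTiter-Glo luminescence; IC50 from a three-parameter logistic fit.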

[3] = test system: Caki-2 cells; assay: CTG (CellTiter-Glo) cell viability assay, Caki-2; details: Caki-2, 3-day, read-out: CTG Chempartner/PHA- Caki-2 3-day: Average external-IC50
How it was run: as §1

Compound	Bcl-xL ELISA in MOLT-4 degradation 6 h: Dmax % [1]	DC50 [1]	IC50 [2]	Dmax [1]	IC50 ([2]; Homo sapiens, MOLT-4, 72 h)	IC50 [3]	IC50 ([3]; Homo sapiens, CAKI-2, 72 h)
Cc1ncsc1-c1ccc(CNC(=O)[C@@H]2C[C@@H](O)CN2C(=O)[C@@H](NC(=O)CCCCCCC(=O)N2CCN(C[C@]3(C)CCC(c4ccc(Cl)cc4)=C(CN4CCN(c5ccc(C(=O)NS(=O)(=O)c6ccc(NCCCN7CCOCC7)c(S(=O)(=O)C(F)(F)F)c6)c(Oc6cnc7[nH]ccc7c6)c5)CC4)C3)CC2)C(C)(C)C)cc1 [I-134]	C (C (<50%))	500 to 1000 nM	100 to 1000 nM	–	–	< 5000 nM	–
Cc1ncsc1-c1ccc([C@H](C)NC(=O)[C@@H]2C[C@@H](O)CN2C(=O)[C@@H](NC(=O)CCCCCC(=O)N2CCN(CC[C@H](CSc3ccccc3)Nc3ccc(S(=O)(=O)NC(=O)c4ccc(NC5CCOCC5)cc4)cc3S(=O)(=O)C(F)(F)F)CC2)C(C)(C)C)cc1 [I-39]	–	100 to 500 nM	–	50 to 75%	> 3000 nM	–	> 30000 nM
Cc1ncsc1-c1ccc([C@H](C)NC(=O)[C@@H]2C[C@@H](O)CN2C(=O)[C@@H](NC(=O)CCCCCCN(C)CC[C@H](CSc2ccccc2)Nc2ccc(S(=O)(=O)NC(=O)c3ccc(N4CCC([C@@H](O)c5ccccc5-c5ccc(Cl)cc5)CC4)cc3)cc2S(=O)(=O)C(F)(F)F)C(C)(C)C)cc1 [I-108]	–	10 to 100 nM	–	50 to 75%	< 100 nM	–	> 30000 nM
Cc1ncsc1-c1ccc([C@H](C)NC(=O)[C@@H]2C[C@@H](O)CN2C(=O)[C@@H](NC(=O)CCCCCCCCN2CCN(Cc3ccc(-c4ccc(Cl)cc4)c(CN4CCN(c5ccc(C(=O)NS(=O)(=O)c6ccc(N[C@H](CCN(C)C)CSc7ccccc7)c([N+](=O)[O-])c6)cc5)CC4)c3)CC2)C(C)(C)C)cc1 [I-9]	–	500 to 1000 nM	–	< 50%	> 3000 nM	–	> 30000 nM
Cc1ncsc1-c1ccc(CNC(=O)[C@@H]2C[C@@H](O)CN2C(=O)[C@@H](NC(=O)CCCCCCC(=O)N2CCN(C[C@]3(C)CCC(c4ccc(Cl)cc4)=C(CN4CCN(c5ccc(C(=O)NS(=O)(=O)c6ccc(NCCCN7CCOCC7)c(S(=O)(=O)C(F)(F)F)c6)c(Oc6cnc7[nH]ccc7c6)c5)CC4)C3)CC2)C(C)(C)C)cc1 [I-131]	–	500 to 1000 nM	–	< 50%	100 to 1000 nM	> 30000 nM	–
Cc1ncsc1-c1ccc([C@H](C)NC(=O)[C@@H]2C[C@@H](O)CN2C(=O)[C@@H](NC(=O)C2CCN(c3ccc(NC(=O)c4ccc(-c5ccc(Cl)cc5)c([C@H](O)C5CCN(c6ccc(C(=O)NS(=O)(=O)c7ccc(N[C@H](CCN(C)CCO)CSc8ccccc8)c(S(=O)(=O)C(F)(F)F)c7)cc6)CC5)c4)cc3)CC2)C(C)(C)C)cc1 (single isomer, unassigned) [I-27]	–	500 to 1000 nM	–	< 50%	> 3000 nM	–	> 30000 nM
Cc1ncsc1-c1ccc([C@H](C)NC(=O)[C@@H]2C[C@@H](O)CN2C(=O)[C@@H](NC(=O)CCCCCCCC(=O)Nc2ccc(-c3ccc(Cl)cc3)c(CN3CCN(c4ccc(C(=O)NS(=O)(=O)c5ccc(N[C@H](CCN(C)C)CSc6ccccc6)c([N+](=O)[O-])c5)cc4)CC3)c2)C(C)(C)C)cc1 [I-10]	–	100 to 500 nM	–	50 to 75%	> 3000 nM	–	> 30000 nM
Cc1ncsc1-c1ccc([C@H](C)NC(=O)[C@@H]2C[C@@H](O)CN2C(=O)[C@@H](NC(=O)CCCCCCC(=O)N2CCN(C(=O)c3ccc(-c4ccc(Cl)cc4)c(CN4CCN(c5ccc(C(=O)NS(=O)(=O)c6ccc(N[C@H](CCN(C)C)CSc7ccccc7)c([N+](=O)[O-])c6)cc5)CC4)c3)CC2)C(C)(C)C)cc1 [I-6]	–	500 to 1000 nM	–	< 50%	> 3000 nM	–	> 30000 nM
Cc1ncsc1-c1ccc([C@H](C)NC(=O)[C@@H]2C[C@@H](O)CN2C(=O)[C@@H](NC(=O)CCCCCC(=O)N2CCN(CC[C@H](CSc3ccccc3)Nc3ccc(S(=O)(=O)NC(=O)c4ccc(N5CC6CCC5C6)cc4)cc3S(=O)(=O)C(F)(F)F)CC2)C(C)(C)C)cc1 (stereo partly drawn) [I-40]	–	500 to 1000 nM	–	50 to 75%	> 3000 nM	–	> 30000 nM
Cc1ncsc1-c1ccc([C@H](C)NC(=O)[C@@H]2C[C@@H](O)CN2C(=O)[C@@H](NC(=O)CCCCCCNC(=O)c2ccc(-c3ccc(Cl)cc3)c(CN3CCN(c4ccc(C(=O)NS(=O)(=O)c5ccc(N[C@H](CCN(C)C)CSc6ccccc6)c([N+](=O)[O-])c5)cc4)CC3)c2)C(C)(C)C)cc1 [I-11]	–	500 to 1000 nM	–	< 50%	> 3000 nM	–	> 30000 nM
Cc1ncsc1-c1ccc([C@H](C)NC(=O)[C@@H]2C[C@@H](O)CN2C(=O)[C@@H](NC(=O)CCCCCC(=O)N2CCN(Cc3ccc(-c4ccc(Cl)cc4)c(CN4CCN(c5ccc(C(=O)NS(=O)(=O)c6ccc(N[C@H](CCN(C)C)CSc7ccccc7)c([N+](=O)[O-])c6)cc5)CC4)c3)CC2)C(C)(C)C)cc1 [I-7]	–	500 to 1000 nM	–	< 50%	> 3000 nM	–	> 30000 nM
Cc1ncsc1-c1ccc([C@H](C)NC(=O)[C@@H]2C[C@@H](O)CN2C(=O)[C@@H](NC(=O)CCCCCCC(=O)N2CCN(C[C@]3(C)CCC(c4ccc(Cl)cc4)=C(CN4CCN(c5ccc(C(=O)NS(=O)(=O)c6ccc(NCCCN7CCOCC7)c(S(=O)(=O)C(F)(F)F)c6)c(Oc6cnc7[nH]ccc7c6)c5)CC4)C3)CC2)C(C)(C)C)cc1 [I-65]	–	10 to 100 nM	–	50 to 75%	< 100 nM	–	10000 to 30000 nM
C#Cc1ccc([C@H](C)NC(=O)[C@@H]2C[C@@H](O)CN2C(=O)[C@@H](NC(=O)CCCCCC(=O)N2CCN(CC[C@H](CSc3ccccc3)Nc3ccc(S(=O)(=O)NC(=O)c4ccc(N5CCC([C@@H](O)c6ccccc6-c6ccc(Cl)cc6)CC5)cc4)cc3S(=O)(=O)C(F)(F)F)CC2)C(C)(C)C)cc1 (single isomer, unassigned) [I-29]	–	10 to 100 nM	–	> 75%	100 to 1000 nM	–	10000 to 30000 nM
Cc1ncsc1-c1ccc([C@H](C)NC(=O)[C@@H]2C[C@@H](O)CN2C(=O)[C@@H](NC(=O)CCCCCC(=O)N2CCN(CCCNc3ccc(S(=O)(=O)NC(=O)c4ccc(N5CCN(Cc6ccccc6-c6ccc(Cl)cc6)CC5)cc4Oc4cnc5[nH]ccc5c4)cc3S(=O)(=O)C(F)(F)F)CC2)C(C)(C)C)cc1 [I-51]	–	100 to 500 nM	–	50 to 75%	1000 to 3000 nM	–	> 30000 nM

The next lines start with results.

Bcl-xL ELISA in MOLT-4 degradation 6 h: Dmax % [1]	DC50 [1]	IC50 [2]	Dmax [1]	IC50 ([2]; Homo sapiens, MOLT-4, 72 h)	Compound	IC50 [3]	IC50 ([3]; Homo sapiens, CAKI-2, 72 h)
–	10 to 100 nM	–	> 75%	< 100 nM	C#Cc1ccc([C@H](CO)NC(=O)[C@@H]2C[C@@H](O)CN2C(=O)[C@@H](NC(=O)CCCCCC(=O)N2CCN(CC[C@H](CSc3ccccc3)Nc3ccc(S(=O)(=O)NC(=O)c4ccc(N5CCN([C@@H](O)c6ccccc6-c6ccc(Cl)cc6)CC5)cc4)cc3S(=O)(=O)C(F)(F)F)CC2)C(C)(C)C)cc1 [I-135]	–	10000 to 30000 nM
–	500 to 1000 nM	–	< 50%	> 3000 nM	Cc1ncsc1-c1ccc([C@H](C)NC(=O)[C@@H]2C[C@@H](O)CN2C(=O)[C@@H](NC(=O)CCCCCC(=O)N2CCN(CCCN(C)CC[C@H](CSc3ccccc3)Nc3ccc(S(=O)(=O)NC(=O)c4ccc(N5CCC([C@@H](O)c6ccccc6-c6ccc(Cl)cc6)CC5)cc4)cc3S(=O)(=O)C(F)(F)F)CC2)C(C)(C)C)cc1 [I-24]	–	> 30000 nM
–	10 to 100 nM	–	50 to 75%	< 100 nM	Cc1ncsc1-c1ccc([C@H](C)NC(=O)[C@@H]2C[C@@H](O)CN2C(=O)[C@@H](NC(=O)CCCCC(=O)N2CCC3(CCN(CC[C@H](CSc4ccccc4)Nc4ccc(S(=O)(=O)NC(=O)c5ccc(N6CCN([C@@H](O)c7ccccc7-c7ccc(Cl)cc7)CC6)cc5)cc4S(=O)(=O)C(F)(F)F)CC3)CC2)C(C)(C)C)cc1 [I-126]	–	< 5000 nM
–	< 10 nM	–	50 to 75%	< 100 nM	Cc1ncsc1-c1ccc([C@H](C)NC(=O)[C@@H]2C[C@@H](O)CN2C(=O)[C@@H](NC(=O)CCCCCC(=O)N2CCCN(CC[C@H](CSc3ccccc3)Nc3ccc(S(=O)(=O)NC(=O)c4ccc(N5CCN([C@@H](O)c6ccccc6-c6ccc(Cl)cc6)CC5)cc4)cc3S(=O)(=O)C(F)(F)F)CC2)C(C)(C)C)cc1 [I-124]	–	10000 to 30000 nM
–	10 to 100 nM	–	> 75%	100 to 1000 nM	Cc1ncsc1-c1ccc([C@H](C)NC(=O)[C@@H]2C[C@@H](O)CN2C(=O)[C@@H](NC(=O)CCCCCCN2CCN(CC[C@H](CSc3ccccc3)Nc3ccc(S(=O)(=O)NC(=O)c4ccc(N5CCC([C@@H](O)c6ccccc6-c6ccc(Cl)cc6)CC5)cc4)cc3S(=O)(=O)C(F)(F)F)CC2)C(C)(C)C)cc1 [I-118]	–	> 30000 nM
–	< 10 nM	–	> 75%	< 100 nM	Cc1ncsc1-c1ccc([C@H](C)NC(=O)[C@@H]2C[C@@H](O)CN2C(=O)[C@@H](NC(=O)CCCCCC(=O)N2CCN(CC[C@H](CSc3ccccc3)Nc3ccc(S(=O)(=O)NC(=O)c4ccc(N5CCN([C@@H](O)c6ccccc6-c6ccc(Cl)cc6)CC5)cc4)cc3S(=O)(=O)C(F)(F)F)CC2)C(C)(C)C)cc1 [I-121]	–	10000 to 30000 nM
–	500 to 1000 nM	–	50 to 75%	> 3000 nM	Cc1ncsc1-c1ccc([C@H](C)NC(=O)[C@@H]2C[C@@H](O)CN2C(=O)[C@@H](NC(=O)CCCCCC(=O)N2CCC(NCC[C@H](CSc3ccccc3)Nc3ccc(S(=O)(=O)NC(=O)c4ccc(N5CCN([C@@H](O)c6ccccc6-c6ccc(Cl)cc6)CC5)cc4)cc3S(=O)(=O)C(F)(F)F)CC2)C(C)(C)C)cc1 [I-127]	–	> 30000 nM
